# Source: patent publication US8207191B2, “Process, salts, composition and use” (Glaxo Group Limited, priority 2003, dated 2012)
# Experiments:
# [1] = solid-state properties of the crystalline salt (stability, hygroscopicity); format: physicochemical
# [2] = applied as a suitable topical formulation
compound,measurement,setting,value
"C=CC1(C)CC(OC(=O)CSC2CC3CCC(C2)N3C)C2(C)C(C)CCC3(CCC(=O)C32)C(C)C1O.O=C(O)CCC(=O)O (stereo not drawn) [hydrosuccinate salt, hydrosuccinate salt of mutilin 14-(exo-8-methyl-8-azabicyclo[3.2.1]oct-3-ylsulfanyl)-acetate]",hygroscopicity of the crystalline form,[1],non-hygroscopic
same,stability of the crystalline form,[1],stable
same,irritation,[2],does not cause significant irritation
